Data: paper PMC10758931 (RSC Advances, 2024)
In brackets after ≈: the same amount, converted by molar mass.

Legend:
[1] = tested on: MCF-7 cell line; assay: Cytotoxic activity; type: cell-based; details: for CC50: Homo sapiens, MCF7, read-out: LC50, MCF-7 cell line; for SI (Selectivity index = LC50 value normal cell/LC50 value cancer cell): Vero / MCF-7
[2] = tested on: normal Vero cell line; assay: Cytotoxic activity; type: cell-based; details: MTT, mean ± standard error of three experiments

Compound | CC50 [1] | SI (Selectivity index = LC50 value normal cell/LC50 value cancer cell) [1] | LC50, Vero [2] | LC50, MCF-7 cell line ([1]; MCF-7, MTT, mean ± standard error of three experiments)
Cc1nn(-c2ccccc2)c2c1C(c1cncs1)N(C(=O)c1ccncc1)N2 (stereo not drawn) [Compound 1k] | 62.34 ± 0.07 µg/mL (≈ 160 µM) | 1.25 | – | –
COc1ccc(C2c3c(C)nn(-c4ccccc4)c3NN2C(=O)c2ccncc2)cc1 (stereo not drawn) [Compound 1e] | 23.62 ± 0.02 µg/mL (≈ 57.4 µM) | 3.36 | – | –
CC(C)=CCCC(C)=CC1c2c(C)nn(-c3ccccc3)c2NN1C(=O)c1ccncc1 (stereo not drawn) [Compound 1g] | 30.82 ± 0.04 µg/mL (≈ 72.1 µM) | – | – | –
(3-(4-chlorophenyl)-4-methyl-6-phenyl pyrazolo[3,4-c]pyrazol-2(1H,3H,6H)-yl)(pyridin-4-yl)methanone [Compound 1a] | – | – | 55.02 ± 0.11 µg/mL | 78.10 ± 0.02 µg/mL
Cc1nn(-c2ccccc2)c2c1C(c1ccc(O)cc1)N(C(=O)c1ccncc1)N2 (stereo not drawn) [Compound 1c] | 70.1 ± 0.05 µg/mL (≈ 176 µM) | 1.05 | – | –
Cc1nn(-c2ccccc2)c2c1C(c1ccc(N(C)C)cc1)N(C(=O)c1ccncc1)N2 (stereo not drawn) [Compound 1f] | 19.92 ± 0.01 µg/mL (≈ 46.9 µM) | 4.12 | – | –
Cc1nn(-c2ccccc2)c2c1C(c1ccccn1)N(C(=O)c1ccncc1)N2 (stereo not drawn) [Compound 1j] | 57.34 ± 0.08 µg/mL (≈ 150 µM) | 1.45 | – | –
Cc1nn(-c2ccccc2)c2c1C(c1c[nH]c3ccccc13)N(C(=O)c1ccncc1)N2 (stereo not drawn) [Compound 1h] | 21.43 ± 0.03 µg/mL (≈ 51 µM) | – | – | –
COc1cccc2c1C(=O)c1c(O)c3c(c(O)c1C2=O)C[C@@](O)(C(=O)CO)C[C@@H]3O[C@H]1C[C@H](N)[C@H](O)[C@H](C)O1 [Doxorubicin, doxorubicin, reference compound] | 0.65 ± 0.01 µg/mL (≈ 1.2 µM) | 32.38 | – | –
Cc1nn(-c2ccccc2)c2c1C(c1ccc([N+](=O)[O-])cc1)N(C(=O)c1ccncc1)N2 (stereo not drawn) [Compound 1d] | 91.1 ± 0.06 µg/mL (≈ 214 µM) | 0.91 | – | –
Cc1nn(-c2ccccc2)c2c1C(c1ccc(Cl)cc1)N(C(=O)c1ccncc1)N2 (stereo not drawn) [Compound 1b] | 22.1 ± 0.04 µg/mL (≈ 53.1 µM) | 2.95 | – | –
Cc1nn(-c2ccccc2)c2c1C(c1ccco1)N(C(=O)c1ccncc1)N2 (stereo not drawn) [Compound 1i] | 26.66 ± 0.05 µg/mL (≈ 71.8 µM) | – | – | –
